The target of the first assay is T1, VLA-4 (Homo sapiens, UniProt P05556+P13612).
T1 construct: endogenous in cells; host or cells: Jurkat cells
T1 sequence (P13612 34-1032): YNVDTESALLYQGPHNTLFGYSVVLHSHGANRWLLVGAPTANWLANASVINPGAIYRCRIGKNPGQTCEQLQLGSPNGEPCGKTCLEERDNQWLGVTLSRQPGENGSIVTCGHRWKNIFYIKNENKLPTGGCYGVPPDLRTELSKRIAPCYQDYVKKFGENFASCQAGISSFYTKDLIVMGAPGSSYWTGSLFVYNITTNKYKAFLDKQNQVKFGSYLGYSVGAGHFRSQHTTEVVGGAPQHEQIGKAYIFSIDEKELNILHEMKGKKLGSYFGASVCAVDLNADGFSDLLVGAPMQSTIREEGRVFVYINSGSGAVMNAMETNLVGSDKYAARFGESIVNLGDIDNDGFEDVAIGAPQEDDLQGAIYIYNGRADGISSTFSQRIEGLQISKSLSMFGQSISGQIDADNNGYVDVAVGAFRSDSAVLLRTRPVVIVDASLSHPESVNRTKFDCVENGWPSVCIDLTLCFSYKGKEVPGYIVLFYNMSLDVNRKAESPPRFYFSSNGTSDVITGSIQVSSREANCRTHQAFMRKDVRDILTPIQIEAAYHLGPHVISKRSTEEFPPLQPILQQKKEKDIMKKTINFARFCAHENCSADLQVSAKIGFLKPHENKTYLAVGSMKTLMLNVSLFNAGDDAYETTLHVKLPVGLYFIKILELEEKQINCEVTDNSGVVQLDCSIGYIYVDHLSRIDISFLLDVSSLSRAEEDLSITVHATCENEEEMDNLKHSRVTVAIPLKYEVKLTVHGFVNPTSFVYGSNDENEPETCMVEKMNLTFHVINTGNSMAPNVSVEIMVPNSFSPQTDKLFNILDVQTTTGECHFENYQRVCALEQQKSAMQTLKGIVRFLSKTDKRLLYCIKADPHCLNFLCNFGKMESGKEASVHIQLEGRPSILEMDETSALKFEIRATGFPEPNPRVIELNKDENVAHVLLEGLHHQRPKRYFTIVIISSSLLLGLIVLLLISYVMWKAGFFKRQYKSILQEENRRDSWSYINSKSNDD
T1 sequence (P05556 21-798): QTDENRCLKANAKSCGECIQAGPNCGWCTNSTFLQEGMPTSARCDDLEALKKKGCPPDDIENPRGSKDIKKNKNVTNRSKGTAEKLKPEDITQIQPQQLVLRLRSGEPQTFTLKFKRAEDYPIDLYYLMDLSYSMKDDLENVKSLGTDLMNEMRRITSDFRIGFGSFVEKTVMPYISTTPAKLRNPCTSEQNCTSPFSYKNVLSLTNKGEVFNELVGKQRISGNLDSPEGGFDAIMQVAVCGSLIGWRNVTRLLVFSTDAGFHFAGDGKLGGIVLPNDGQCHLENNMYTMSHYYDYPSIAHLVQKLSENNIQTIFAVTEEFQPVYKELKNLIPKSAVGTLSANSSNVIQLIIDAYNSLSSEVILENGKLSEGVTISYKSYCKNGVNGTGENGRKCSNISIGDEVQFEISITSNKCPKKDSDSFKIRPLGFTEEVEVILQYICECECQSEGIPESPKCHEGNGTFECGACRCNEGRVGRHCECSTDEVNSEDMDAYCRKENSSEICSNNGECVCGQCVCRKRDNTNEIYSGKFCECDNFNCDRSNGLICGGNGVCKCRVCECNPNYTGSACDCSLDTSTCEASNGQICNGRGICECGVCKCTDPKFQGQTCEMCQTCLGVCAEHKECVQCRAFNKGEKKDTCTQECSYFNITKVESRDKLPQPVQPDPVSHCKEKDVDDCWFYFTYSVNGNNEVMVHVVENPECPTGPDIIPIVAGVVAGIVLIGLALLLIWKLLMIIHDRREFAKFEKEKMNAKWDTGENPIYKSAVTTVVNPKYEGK
The experiment in a line: VLA-4 direct binding assay (VCAM-IgG alkaline phosphatase conjugate binding to Jurkat cells). The settings on record: Table 1, Structure-Activity; assay and unit inferred; read-out: Act. The text has this: A direct binding assay may also be employed to quantitate the inhibitory activity of the compounds of this invention. (“DBA”) In direct binding assays, for example, a VCAM-IgG fusion protein containing the first two immunoglobulin domains of VCAM (D1D2) attached above the hinge region of an IgG1 molecule (“VCAM 2D-IgG”), is conjugated to a marker enzyme, such as alkaline phosphatase (“AP”). The synthesis of this VCAM-IgG fusion is described in PCT publication WO 90/13300, the disclosure of which is herein incorporated by reference. The conjugation of that fusion to a marker enzyme can be achieved by cross-linking methods well-known in the art.
The VCAM-IgG enzyme conjugate is then placed in the wells of a multi-well filtration plate, such as that contained in the Millipore Multiscreen Assay System (Millipore Corp., Bedford, Mass.). Varying concentrations of the test inhibitory compound are then added to the wells followed by addition of VLA-4-expressing cells. The cells, compound and VCAM-IgG enzyme conjugate are mixed together and allowed to incubate at room temperature.
Following incubation, the wells are vacuum drained, leaving behind the cells and any bound VCAM. Quantitation of bound VCAM is determined by adding an appropriate calorimetric substrate for the enzyme conjugated to VCAM-IgG and determining the amount of reaction product. Decreased reaction product indicates increased binding inhibitory activity. The protocol is described more specifically below:
1. Block a 96 well Millipore Multiscreen Assay System filtration plate^1 with 200:l/well of blocking buffer (1×Phosphate Buffered Saline, 0.1%Tween 20, 1%BSA) for at least 1 hour at room temperature.
2. Drain the plate with the vacuum manifold, and wash with 200 μl/well of assay buffer (Tris Buffered Saline, 0.1% BSA, 2 mM glucose, 10 mM HEPES, pH 7.5) draining the plate in between. Repeat twice. Then blot the plate bottom on paper to remove excess buffer.
3. Prepare a 4 μg/ml VCAMIg-AP solution (Alkaline phosphatase coupled to VCAMIg) in assay buffer and filter with a 0.2:low protein binding syringe filter (Gelman Sciences #4454). From this stock, prepare a 0.4 μg/ml working solution of VCAMIg-AP in assay buffer. Add 25:l of 0.4 μg/ml VCAMIg-AP to every well.
5. Prepare dilutions of compounds to be tested in assay buffer. Concentrations should be 4× the desired final concentration and run in triplicate. Add 25 μl of the compound dilutions to designated wells.
7. Jurkat cells are centrifuged to remove cell culture media and washed once in assay buffer. Resuspend the washed Jurkat cells to a concentration of 8×10^6/ml in assay buffer containing 2 mM MnCl2. Pipeting the mixture up and down to ensure a uniform cell suspension. Add 50:l of cell suspension to each well except the NSB wells.
8. Gently tap the sides of the plate to mix well contents. Incubate the plate for 60 minutes at room temperature (RT).
9. Place the plate on the vacuum manifold to drain the well contents. Wash twice with 100 μl/well of wash buffer (assay buffer containing 1 mM MnCl2). Drain the plate and blot on paper towels.
10. Add 10 mg/ml of 4-Nitro phenyl phosphate to Substrate buffer (0.1M glycine, 1 mM ZnCl2, 1 mM MgCl2, pH 10.5). Add 100 μl/well and incubate for exactly 30 minutes at RT.
11. To stop the reaction, add 100 μl/well of 3N NaOH.
12. Read the 96-well plate in a Molecular Devices ELISA platereader at 405 nm. Analyze data with SoftMax software.
With `Cc1ccccc1NC(=O)Nc1ccc(CC(=O)Nc2ccc3c(c2)C(=O)N(CCC(=O)O)CC(=O)N3CC2CC2)cc1` [BX46], the IC50 was 0.194 µM.

Turning to `Cc1ccccc1NC(=O)Nc1ccc(CC(=O)Nc2ccc3c(c2)C(=O)N(CCC(=O)O)CC(=O)N3Cc2ccc(F)cc2)cc1` [BX48], the IC50 was found to be 0.166 µM.

With `CCC(C)N1C(=O)CN(CCC(=O)O)C(=O)c2cc(NC(=O)Cc3ccc(NC(=O)Nc4ccccc4C)cc3)ccc21` (stereo not drawn) [BX49], the IC50 came to 0.163 µM.

As for `Cc1ccccc1NC(=O)Nc1ccc(CC(=O)Nc2ccc3c(c2)C(=O)N(CC(C)C(=O)O)CC(=O)N3C)cc1` (stereo not drawn) [BX50], the IC50 was 0.0523 µM.

With `Cc1ccccc1NC(=O)Nc1ccc(CC(=O)Nc2ccc3c(c2)C(=O)N(CCC(=O)O)CC(=O)N3CCc2ccccc2)cc1` [BX52], the IC50 was found to be 0.133 µM.

In the case of `COCC(C)N1C(=O)CN(CCC(=O)O)C(=O)c2cc(NC(=O)Cc3ccc(NC(=O)Nc4ccccc4C)cc3)ccc21` (stereo not drawn) [BX54], the IC50 came to 0.128 µM.

For the compound `Cc1ccccc1NC(=O)Nc1ccc(CC(=O)Nc2ccc3c(c2)C(=O)N(CCC(=O)O)CC(=O)N3CC2CCCO2)cc1` (stereo not drawn) [BX55], the IC50 amounted to 0.12 µM.

Turning to `COC(=O)CN1C(=O)CN(CCC(=O)O)C(=O)c2cc(NC(=O)Cc3ccc(NC(=O)Nc4ccccc4C)cc3)ccc21` [BX57], the IC50 came out at 0.113 µM.

Turning to `Cc1ccccc1NC(=O)Nc1ccc(CC(=O)Nc2ccc3c(c2)C(=O)N(CCC(=O)O)CC(=O)N3Cc2ccccc2)cc1` [BX58], the IC50 was found to be 0.116 µM.

Turning to `CCC(CC(=O)O)N1CC(=O)N(C)c2ccc(NC(=O)Cc3ccc(NC(=O)Nc4ccccc4C)cc3)cc2C1=O` (stereo not drawn) [BX60], the IC50 was 0.103 µM.

Consider `COCCN1CC(=O)N(CCC(=O)O)Cc2cc(NC(=O)Cc3ccc(NC(=O)Nc4ccccc4C)cc3)ccc21` [BX61], for which the IC50 stood at 0.0993 µM.

With `Cc1ccccc1NC(=O)Nc1ccc(CC(=O)Nc2ccc3c(c2)C(=O)N(C(CC(=O)O)C(=O)O)CC(=O)N3CCC(=O)O)cc1` (stereo not drawn) [BX62], the IC50 was 0.095 µM.

As for `COC(=O)C(C(C)C)N1C(=O)CN(CCC(=O)O)C(=O)c2cc(NC(=O)Cc3ccc(NC(=O)Nc4ccccc4C)cc3)ccc21` (stereo not drawn) [BX63], the IC50 is 0.075 µM.

In the case of `CN1C(=O)CN(CCC(=O)O)C(=O)c2cc(NC(=O)Cc3ccc(NC(=O)c4c[nH]c5ccccc45)cc3)ccc21` [BX64], the IC50 was 0.024 µM.

As for `CN1Cc2ccc(NC(=O)Cc3ccc(NC(=O)Nc4ccccc4Br)cc3)cc2CN(CC(=O)O)C1=O` [BX65], the IC50 came to 0.065 µM.

Consider `Cc1ccccc1NC(=O)Nc1ccc(CC(=O)Nc2ccc3c(c2)C(=O)N(C(C)CC(=O)O)CC(=O)N3C)cc1` (stereo not drawn) [BX67], for which the IC50 was 0.0625 µM.

Consider `COc1ccc(CCN2CC(=O)N(CCC(=O)O)Cc3cc(NC(=O)Cc4ccc(NC(=O)Nc5ccccc5C)cc4)ccc32)cc1OC` [BX68], for which the IC50 turned out to be 0.035 µM.

Consider `Cc1ccccc1NC(=O)Nc1ccc(CC(=O)Nc2ccc3c(c2)CN(CCC(=O)O)C(=O)CN3CCN2CCOCC2)cc1` [BX69], for which the IC50 came out at 0.0315 µM.

For the compound `COCCCN1CC(=O)N(CCC(=O)O)Cc2cc(NC(=O)Cc3ccc(NC(=O)Nc4ccccc4C)cc3)ccc21` [BX70], the IC50 was determined as 0.0305 µM.

Take `Cc1ccccc1NC(=O)Nc1ccc(CC(=O)Nc2ccc3c(c2)CN(CCC(=O)O)C(=O)CN3CCC(=O)O)cc1` [BX71]: the IC50 came to 0.0285 µM.

Turning to `CCOC(=O)CCN1CC(=O)N(CCC(=O)O)Cc2cc(NC(=O)Cc3ccc(NC(=O)Nc4ccccc4C)cc3)ccc21` [BX72], the IC50 is 0.0125 µM.

With `Cc1ccccc1NC(=O)Nc1ccc(NC(=O)C2CCCN2C(=O)CCCCC(=O)O)cc1` (stereo not drawn) [CX1], the IC50 was determined as 1.35 µM.

As to `Cc1ccccc1NC(=O)Nc1ccc(NC(=O)[C@@H]2CCCN2C(=O)NCCCC(=O)O)cc1` [CX2], the IC50 worked out at 8.94 µM.

`Cc1ccccc1NC(=O)Nc1ccc(NC(=O)[C@@H]2CCCN2C(=O)NCCC(=O)O)cc1` [CX7]: the IC50 was found to be 0.19 µM.

Regarding `Cc1ccccc1NC(=O)Nc1ccc(NC(=O)[C@@H]2CCCN2C(=O)CCCC(=O)O)cc1` [CX8], the IC50 was 0.48 µM.

As for `Cc1ccccc1NC(=O)Nc1ccc(NC(=O)[C@@H]2CCCN2C(=O)CC[C@@H](C)CC(=O)O)cc1` [CX9], the IC50 turned out to be 0.332 µM.

Consider `Cc1ccccc1NC(=O)Nc1ccc(NC(=O)[C@@H]2CCCN2C(=O)CC(C)CC(=O)O)cc1` (stereo partly drawn) [CX10], for which the IC50 came to 0.258 µM.

Regarding `Cc1ccccc1NC(=O)Nc1ccc(NC(=O)[C@@H]2CCCN2C(=O)CC(C)CCC(=O)O)cc1` (stereo partly drawn) [CX11], the IC50 was found to be 0.144 µM.

Turning to `Cc1ccccc1NC(=O)Nc1ccc(NC(=O)[C@@H]2CSCN2C(=O)CCCCC(=O)O)cc1` [CX12], the IC50 was found to be 0.0635 µM.

Regarding `Cc1ccccc1NC(=O)Nc1ccc(NC(=O)CN(CCC(C)C)C(=O)CCCCC(=O)O)cc1` [CX13], the IC50 turned out to be 0.0525 µM.

As to `O=C(O)CCNC(=O)[C@@H]1CCCN(C(=O)Cc2ccc(NC(=O)Nc3ccccc3)cc2)C1` [MX1], the IC50 was determined as 0.872 µM.

In the case of `COc1ccc(CNC(=O)C2=C(C(=O)N[C@@H](CC(=O)O)c3ccc(OC)cc3)CCC2)cc1` [MX2], the IC50 came out at 0.25 µM.

`Cc1ccccc1NC(=O)Nc1ccc(CC(=O)Nc2cccc(S(=O)(=O)NC(C)CC(=O)O)c2)cc1` (stereo not drawn) [RX2]: the IC50 is 10.6 µM.

`Cc1ccccc1NC(=O)Nc1ccc(CC(=O)Nc2cccc(OCCCCC(=O)O)c2)cc1` [RX4]: the IC50 is 4.46 µM.

Turning to `Cc1ccccc1NC(=O)Nc1ccc(CC(=O)Nc2cccc(S(=O)(=O)NCCC(=O)O)c2)cc1` [RX5], the IC50 was determined as 3.81 µM.

In the case of `Cc1ccccc1NC(=O)Nc1ccc(CC(=O)Nc2cccc(OCCC(C)C(=O)O)c2)cc1` (stereo not drawn) [RX6], the IC50 is 2.59 µM.

As to `COc1ccc(NC(=O)Cc2ccc(NC(=O)Nc3ncccc3C)cc2)cc1OCCCC(=O)O` [RX7], the IC50 was determined as 2.3 µM.

Regarding `Cc1ccccc1NC(=O)Nc1ccc(CC(=O)Nc2cccc(CN(CCC(=O)O)C(=O)Cc3ccccc3)c2)cc1` [RX8], the IC50 was determined as 2.25 µM.

In the case of `Cc1ccccc1NC(=O)Nc1ccc(CC(=O)Nc2cc(OCCCC(=O)O)ccc2C(C)C)cc1` [RX10], the IC50 was found to be 2.04 µM.

`Cc1ccccc1NC(=O)Nc1ccc(CC(=O)NCc2cccc(OCC(=O)O)c2)cc1` [RX11]: the IC50 was found to be 1.14 µM.

With `Cc1ccccc1NC(=O)Nc1ccc(NC(=O)Nc2cccc(OCCCC(=O)O)c2)cc1` [RX13], the IC50 was found to be 0.686 µM.

Turning to `Cc1ccccc1NC(=O)Nc1ccc(CC(=O)NCc2cccc(OCCCC(=O)O)c2)cc1` [RX14], the IC50 came out at 0.652 µM.

In the case of `Cc1ccccc1NC(=O)Nc1ccc(CC(=O)Nc2cccc(NCCC(=O)O)c2)cc1` [RX15], the IC50 came to 0.65 µM.

For the compound `Cc1ccccc1NC(=O)Nc1ccc(CC(=O)Nc2cc(OCCCC(=O)O)cc(OCCC(C)C)c2)cc1` [RX16], the IC50 stood at 0.574 µM.

On to `Cc1ccccc1NC(=O)Nc1ccc(CC(=O)Nc2ccc(C(=O)O)c(OCCCC(=O)O)c2)cc1` [RX17], for which the IC50 was 0.406 µM.

As to `Cc1ccccc1NC(=O)Nc1ccc(CC(=O)Nc2cccc(CN(CCC(=O)O)C(=O)c3ccccc3)c2)cc1` [RX18], the IC50 came to 0.35 µM.

`Cc1ccccc1NC(=O)Nc1ccc(CC(=O)Nc2cccc(OCCC(=O)O)c2)cc1` [RX19]: the IC50 amounted to 0.317 µM.

On to `CC(=O)N(CCCC(=O)O)Cc1cccc(NC(=O)Cc2ccc(NC(=O)Nc3ccccc3C)cc2)c1` [RX20], for which the IC50 worked out at 0.25 µM.

Turning to `Cc1ccccc1NC(=O)Nc1ccc(CC(=O)Nc2cccc(OC/C=C/C(=O)O)c2)cc1` [RX21], the IC50 came out at 0.285 µM.

For `COC(=O)CCCOc1cc(NC(=O)Cc2ccc(NC(=O)Nc3ccccc3C)cc2)cc(OCCCC(=O)O)c1` [RX22], the IC50 stood at 0.157 µM.

As for `Cc1ccccc1NC(=O)Nc1ccc(CC(=O)Nc2cccc(OCCCC(=O)O)c2)cc1` [RX23], the IC50 worked out at 0.144 µM.

In the case of `Cc1ccccc1NC(=O)Nc1ccc(CC(=O)Nc2ccc(C)c(OCCCC(=O)O)c2)cc1` [RX24], the IC50 is 0.855 µM.

In the case of `COc1cc(NC(=O)Cc2ccc(NC(=O)Nc3ccccc3C)cc2)cc(OCCCC(=O)O)c1` [RX26], the IC50 stood at 0.0777 µM.

Still in this assay, the particulars now being: qualitative statement.
For the compound `Cc1ccccc1NC(=O)Nc1ccc(NC(=O)CN(C)C(=O)CN(CCC(=O)O)C(=O)c2ccccc2)cc1` [Compound A], the VLA-4 inhibitory activity entry is “having VLA-4 inhibitory activity”.

(Values after patent US6686350B1, “Cell adhesion inhibitors” (Biogen, Inc., priority 1996, dated 2004).)
